In patent publication US20260193293A1, “PEPTIDES CAPABLE OF INHIBITING PROTEIN-PROTEIN INTERACTIONS AT GABAB1A SUBUNIT AND USES THEREOF” (UNIVERSITY OF COPENHAGEN, priority 2022, published 2026):
Read-outs that look alike come from different tables or passages of the source. Non-standard residues stand in square brackets, D forms with d. Residues, ends and D or L forms follow the SMILES beside them. NMeW = CN[C@@H](Cc1c[nH]c2ccccc12)C(=O)O; NMeD = CN[C@@H](CC(=O)O)C(=O)O; NMeA = CN[C@@H](C)C(=O)O; Sar = CNCC(=O)O

Molecular target: Sushi domains (SD1/2) protein
Assay: Fluorescence polarization (FP) competition assay with AJAP-1probe, calculated Ki
Type: binding
Method in brief: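 Ki values were derived from IC50s (sigmoidal fits, ≥ triplicate), with probe Kd obtained by saturation titration of SD1/2. Peptides displaced a 25 nM TAMRA-labelled probe; polarization read at 530/580 nm in 1% BSA-containing PBS, pH 7.4, room temperature.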

[1] = Table 4, truncation and elongation scans of APP epitope, read-out: Ki (nM) mean ± SEM
[2] = Table 7, Ala-, D-amino acids and N-methylation scans of APPWT, read-out: Ki (nM) mean ± SEM
[3] = Table 9, Ala-, D-amino acids and N-methylation scans of PIANPWT, read-out: Ki (nM) mean ± SEM
[4] = Table 12, deep mutational scanning validation variants of PIANPWT, read-out: Ki (nM) mean ± SEM
[5] = Table 1, affinity maturation, mean ± SEM, n ≥ 3, read-out: Ki
[6] = Table 8, Ala-, D-amino acids and N-methylation scans of AJAP-1WT, read-out: Ki (nM) mean ± SEM

CC(=O)N[C@@H](C)C(=O)N[C@@H](CC(=O)O)C(=O)N[C@@H](C)C(=O)N[C@@H](CCC(=O)O)C(=O)N[C@@H](CCC(=O)O)C(=O)N[C@@H](CC(=O)O)C(=O)N[C@@H](CC(=O)O)C(=O)N[C@@H](CO)C(=O)N[C@@H](CC(=O)O)C(=O)N[C@H](C(=O)N[C@@H](Cc1c[nH]c2ccccc12)C(=O)N[C@@H](Cc1c[nH]c2ccccc12)C(=O)NCC(=O)NCC(=O)N[C@@H](C)C(=O)N[C@@H](CC(=O)O)C(=O)N[C@H](C(=O)N[C@@H](CC(=O)O)C(=O)N[C@@H](Cc1ccc(O)cc1)C(=O)N[C@@H](C)C(=O)N[C@@H](CC(=O)O)C(N)=O)[C@@H](C)O)C(C)C (Ac-ADAEEDDSDVWWGGADTDYAD-NH2) was tested, and the Ki [1] was 500 ± 16 nM.

With CC(=O)N[C@@H](CCC(=O)O)C(=O)N[C@@H](CCC(=O)O)C(=O)N[C@@H](CC(=O)O)C(=O)N[C@@H](CC(=O)O)C(=O)N[C@@H](CO)C(=O)N[C@@H](CC(=O)O)C(=O)N[C@H](C(=O)N[C@@H](Cc1c[nH]c2ccccc12)C(=O)N[C@@H](Cc1c[nH]c2ccccc12)C(=O)NCC(=O)NCC(=O)N[C@@H](C)C(N)=O)C(C)C (Ac-EEDDSDVWWGGA-NH2) the Ki [1] was 1020 ± 18 nM.

CC(=O)N[C@@H](CCC(=O)O)C(=O)N[C@@H](CC(=O)O)C(=O)N[C@@H](CC(=O)O)C(=O)N[C@@H](CO)C(=O)N[C@@H](CC(=O)O)C(=O)N[C@H](C(=O)N[C@@H](Cc1c[nH]c2ccccc12)C(=O)N[C@@H](Cc1c[nH]c2ccccc12)C(=O)NCC(=O)NCC(=O)N[C@@H](C)C(=O)N[C@@H](CC(=O)O)C(=O)N[C@H](C(=O)N[C@@H](C)C(N)=O)[C@@H](C)O)C(C)C (Ac-EDDSDVWWGGADTA-NH2) gave a Ki [2] of 786 ± 29 nM.

For CC[C@H](C)[C@H](NC(=O)[C@H](Cc1ccccc1)NC(=O)[C@H](CCC(=O)O)NC(=O)[C@@H](NC(=O)[C@H](CCC(=O)O)NC(C)=O)[C@@H](C)O)C(=O)N[C@@H](C)C(=O)N[C@@H](Cc1c[nH]c2ccccc12)C(=O)NCC(=O)N1CCC[C@H]1C(=O)N[C@H](C(=O)NCC(=O)N[C@@H](CC(=O)O)C(=O)N[C@@H](Cc1ccc(O)cc1)C(=O)N[C@@H](CC(=O)O)C(N)=O)[C@@H](C)O (Ac-ETEFIAWGPTGDYD-NH2), the Ki (Table 11, deep mutational scanning validation variants of AJAP-1WT, read-out: Ki (nM) mean ± SEM) was 40 ± 1 nM.

With CC(=O)N[C@@H](CCC(=O)O)C(=O)N[C@@H](CC(=O)O)C(=O)N[C@@H](CC(=O)O)C(=O)N[C@@H](CO)C(=O)N[C@@H](CC(=O)O)C(=O)N[C@H](C(=O)N[C@@H](Cc1c[nH]c2ccccc12)C(=O)N[C@@H](Cc1c[nH]c2ccccc12)C(=O)NCC(=O)NCC(=O)N[C@@H](C)C(=O)N[C@@H](CC(=O)O)C(=O)N[C@@H](Cc1c[nH]c2ccccc12)C(=O)N[C@@H](CC(=O)O)C(N)=O)C(C)C (Ac-EDDSDVWWGGADWD-NH2) the Ki (Table 10, deep mutational scanning validation variants of APPWT, read-out: Ki (nM) mean ± SEM) was 459 ± 21 nM.

Molecule CC(=O)N[C@@H](CCC(=O)O)C(=O)N[C@@H](CC(=O)O)C(=O)N[C@@H](C)C(=O)N[C@@H](CO)C(=O)N[C@@H](CC(=O)O)C(=O)N[C@H](C(=O)N[C@@H](Cc1c[nH]c2ccccc12)C(=O)N[C@@H](Cc1c[nH]c2ccccc12)C(=O)NCC(=O)NCC(=O)N[C@@H](C)C(=O)N[C@@H](CC(=O)O)C(=O)N[C@H](C(=O)N[C@@H](CC(=O)O)C(N)=O)[C@@H](C)O)C(C)C (Ac-EDASDVWWGGADTD-NH2) has a Ki [2] of 1830 ± 54 nM.

Molecule CC(=O)N[C@@H](CCC(=O)O)C(=O)N(C)[C@@H](CC(=O)O)C(=O)N[C@@H](CC(=O)O)C(=O)N[C@@H](CO)C(=O)N[C@@H](CC(=O)O)C(=O)N[C@H](C(=O)N[C@@H](Cc1c[nH]c2ccccc12)C(=O)N[C@@H](Cc1c[nH]c2ccccc12)C(=O)NCC(=O)NCC(=O)N[C@@H](C)C(=O)N[C@@H](CC(=O)O)C(=O)N[C@H](C(=O)N[C@@H](CC(=O)O)C(N)=O)[C@@H](C)O)C(C)C (Ac-E[NMeD]DSDVWWGGADTD-NH2) has a Ki [2] of 655 ± 24 nM.

CC[C@H](C)[C@H](NC(=O)[C@H](C)N(C)C(=O)[C@H](Cc1c[nH]c2ccccc12)NC(=O)[C@@H]1CCCN1C(C)=O)C(=O)N[C@H](C(=O)N[C@@H](Cc1c[nH]c2ccccc12)C(=O)NCC(=O)N1CCC[C@H]1C(=O)N[C@H](C(=O)N[C@H](C(=O)N[C@@H](CO)C(=O)N[C@@H](CCCNC(=N)N)C(=O)N[C@@H](CCC(=O)O)C(=O)N[C@@H](CC(=O)O)C(N)=O)C(C)C)[C@@H](C)O)C(C)C [PW(N-Me-A)IVWGPTVSRED] (Ac-PW[NMeA]IVWGPTVSRED-NH2) showed a Ki [3] of 7230 ± 130 nM.

Work on CC[C@H](C)[C@H](NC(=O)[C@H](Cc1ccc(O)cc1)NC(=O)[C@H](Cc1c[nH]c2ccccc12)NC(=O)[C@@H]1CCCN1C(C)=O)C(=O)N[C@H](C(=O)N[C@@H](Cc1c[nH]c2ccccc12)C(=O)NCC(=O)N1CCC[C@H]1C(=O)N[C@H](C(=O)N[C@H](C(=O)N[C@@H](CO)C(=O)N[C@@H](CCCNC(=N)N)C(=O)N[C@@H](CCC(=O)O)C(=O)N[C@@H](CC(=O)O)C(N)=O)C(C)C)[C@@H](C)O)C(C)C [PWYIVWGPTVSRED] (Ac-PWYIVWGPTVSRED-NH2) yielded a Ki [4] of 336 ± 2 nM.

CC[C@H](C)[C@H](NC(=O)[C@H](Cc1c[nH]c2ccccc12)NC(=O)[C@H](CO)NC(=O)[C@H](CC(=O)O)NC(=O)[C@H](CC(=O)O)NC(=O)[C@H](CCC(=O)O)NC(C)=O)C(=O)N[C@@H](Cc1c[nH]c2ccccc12)C(=O)N[C@@H](Cc1c[nH]c2ccccc12)C(=O)N[C@@H](Cc1ccc(O)cc1)C(=O)NCC(=O)N[C@@H](C)C(=O)N[C@@H](CC(=O)O)C(=O)N[C@H](C(=O)N[C@@H](CC(=O)O)C(N)=O)[C@@H](C)O [Peptide 28] (Ac-EDDSWIWWYGADTD-NH2) gave a Ki [5] of 18 ± 1 nM and a Ki (Table 13, peptides for affinity maturation, read-out: Ki (nM) mean ± SEM) of 18 ± 1 nM.

CC[C@H](C)[C@H](NC(=O)[C@H](Cc1ccccc1)NC(=O)[C@H](CCC(=O)O)NC(C)=O)C(=O)N[C@@H](C)C(=O)N[C@@H](Cc1c[nH]c2ccccc12)C(=O)NCC(=O)N1CCC[C@H]1C(=O)N[C@H](C(=O)NCC(=O)N[C@@H](CC(=O)O)C(=O)N[C@@H](CCC(=O)O)C(=O)N[C@@H](CC(=O)O)C(N)=O)[C@@H](C)O [EFIAWGPTGDED] (Ac-EFIAWGPTGDED-NH2) gave a Ki (Table 5, elongation and truncation scan of AJAP-1 binding epitope, read-out: Ki (nM) mean ± SEM) of 112 ± 1 nM.

With CC(=O)N[C@@H](CCC(=O)O)C(=O)N[C@@H](CCC(=O)O)C(=O)N[C@@H](CC(=O)O)C(=O)N[C@@H](CC(=O)O)C(=O)N[C@@H](CO)C(=O)N[C@@H](CC(=O)O)C(=O)N[C@H](C(=O)N[C@@H](Cc1c[nH]c2ccccc12)C(=O)N[C@@H](Cc1c[nH]c2ccccc12)C(N)=O)C(C)C (Ac-EEDDSDVWW-NH2) the Ki [1] was 1786 ± 16 nM.

With CC(=O)N[C@@H](CC(=O)O)C(=O)N[C@@H](CC(=O)O)C(=O)N[C@@H](CO)C(=O)N[C@@H](CC(=O)O)C(=O)N[C@H](C(=O)N[C@@H](Cc1c[nH]c2ccccc12)C(=O)N[C@@H](Cc1c[nH]c2ccccc12)C(=O)NCC(=O)NCC(N)=O)C(C)C (Ac-DDSDVWWGG-NH2) the Ki (Table 3, SPOT hit validation and previously reported peptides, read-out: Ki (nM) mean ± SEM) was 2630 ± 97 nM.

In the case of CCOc1ccc(C[C@H](NC(=O)[C@H](CC(=O)O)NC(=O)[C@H](CC(=O)O)NC(=O)[C@H](CC(=O)O)NC(=O)[C@H](CCC(=O)O)NC(C)=O)C(=O)N[C@H](C(=O)N[C@@H](CC(=O)O)C(=O)N[C@@H](Cc2c[nH]c3ccccc23)C(=O)NCC(=O)N2CCC[C@H]2C(=O)N[C@H](C(=O)N[C@@H](CO)C(=O)N[C@@H](CC(=O)O)C(=O)N[C@@H](CC(=O)O)C(=O)N[C@@H](CC(=O)O)C(N)=O)[C@@H](C)O)[C@@H](C)CC)cc1 [Peptide 34] (Ac-EDDDY(Et)IDWGPTSDDD-NH2), the Ki [5] is reported as 6.5 ± 0.4 nM and the Ki (Table 16, ncAAs incorporated peptides, read-out: Ki (nM) mean ± SEM) is reported as 6.5 ± 0.4 nM.

Work on CC[C@H](C)[C@H](NC(=O)[C@H](C)NC(=O)[C@H](Cc1c[nH]c2ccccc12)NC(=O)[C@@H]1CCCN1C(C)=O)C(=O)N[C@@H](CC(=O)O)C(=O)N[C@@H](Cc1c[nH]c2ccccc12)C(=O)NCC(=O)N1CCC[C@H]1C(=O)N[C@H](C(=O)N[C@H](C(=O)N[C@@H](CO)C(=O)N[C@@H](CCCNC(=N)N)C(=O)N[C@@H](CCC(=O)O)C(=O)N[C@@H](CC(=O)O)C(N)=O)C(C)C)[C@@H](C)O [PWAIDWGPTVSRED] (Ac-PWAIDWGPTVSRED-NH2) yielded a Ki [4] of 1300 ± 16 nM.

CC[C@H](C)[C@H](NC(=O)[C@H](Cc1ccccc1)NC(=O)[C@H](CCC(=O)O)NC(=O)[C@@H](NC(=O)[C@H](CCC(=O)O)NC(C)=O)[C@@H](C)O)C(=O)N[C@@H](C)C(=O)N(C)[C@@H](Cc1c[nH]c2ccccc12)C(=O)NCC(=O)N1CCC[C@H]1C(=O)N[C@H](C(=O)NCC(=O)N[C@@H](CC(=O)O)C(=O)N[C@@H](CCC(=O)O)C(=O)N[C@@H](CC(=O)O)C(N)=O)[C@@H](C)O [ETEFIA(N-Me-W)GPTGDED] (Ac-ETEFIA[NMeW]GPTGDED-NH2) was tested, and the Ki [6] was 46 ± 2 nM.

With CC[C@H](C)[C@H](NC(=O)[C@H](C)NC(=O)[C@H](Cc1c[nH]c2ccccc12)NC(=O)[C@@H]1CCCN1C(C)=O)C(=O)N[C@H](C(=O)N[C@@H](Cc1c[nH]c2ccccc12)C(=O)NCC(=O)N1CCC[C@H]1C(=O)N[C@H](C(=O)N[C@H](C(=O)N[C@@H](CO)C(=O)N[C@@H](CCCNC(=N)N)C(=O)N[C@@H](CCC(=O)O)C(=O)N(C)[C@@H](CC(=O)O)C(N)=O)C(C)C)[C@@H](C)O)C(C)C (Ac-PWAIVWGPTVSRE[NMeD]-NH2) the Ki [3] was 434 ± 10 nM.

Work on CC[C@H](C)[C@H](NC(=O)[C@H](Cc1ccccc1)NC(=O)[C@H](CCC(=O)O)NC(=O)[C@@H](NC(=O)[C@H](CCC(=O)O)NC(C)=O)[C@@H](C)O)C(=O)N[C@@H](C)C(=O)N[C@@H](Cc1c[nH]c2ccccc12)C(=O)NCC(=O)N1CCC[C@H]1C(=O)N[C@H](C(=O)N(C)CC(=O)N[C@@H](CC(=O)O)C(=O)N[C@@H](CCC(=O)O)C(=O)N[C@@H](CC(=O)O)C(N)=O)[C@@H](C)O (Ac-ETEFIAWGPT[Sar]DED-NH2) yielded a Ki [6] of 132 ± 5 nM.
